The record followed here is ChEMBL document CHEMBL4419163, “Assays for identifying compounds that modulate bitter taste” (2014).

Molecules are shown by their SMILES. Where only a bound is given, the exact number is not on record here.

Holding throughout (format): functional, cell-based
The target in test [1] is T1, Taste receptor type 2 member 13 (Homo sapiens) (UniProt Q9NYV9).
T1 sequence (whole entry): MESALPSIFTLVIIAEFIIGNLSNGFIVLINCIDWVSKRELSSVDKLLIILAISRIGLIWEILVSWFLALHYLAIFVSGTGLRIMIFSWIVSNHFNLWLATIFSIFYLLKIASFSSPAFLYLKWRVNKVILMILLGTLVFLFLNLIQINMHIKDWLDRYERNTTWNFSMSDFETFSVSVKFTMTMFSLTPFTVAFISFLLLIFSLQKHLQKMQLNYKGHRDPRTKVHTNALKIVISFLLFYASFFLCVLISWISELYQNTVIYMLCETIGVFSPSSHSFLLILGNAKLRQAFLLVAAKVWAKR
Put plainly: Agonist activity at human TAS2R13 expressed in HEK293T cells co-expressing Galpha15 assessed as increase in intracellular calcium level at 20 mM by Calcium-3 dye based fluorescence assay relative to control. In general terms: A change in cytosolic calcium serves as a functional read-out for many receptors and channels.

Test [2] concerns the target T2, Taste receptor type 2 member 7 (Homo sapiens) (UniProt Q9NYW3).
T2 sequence (whole entry): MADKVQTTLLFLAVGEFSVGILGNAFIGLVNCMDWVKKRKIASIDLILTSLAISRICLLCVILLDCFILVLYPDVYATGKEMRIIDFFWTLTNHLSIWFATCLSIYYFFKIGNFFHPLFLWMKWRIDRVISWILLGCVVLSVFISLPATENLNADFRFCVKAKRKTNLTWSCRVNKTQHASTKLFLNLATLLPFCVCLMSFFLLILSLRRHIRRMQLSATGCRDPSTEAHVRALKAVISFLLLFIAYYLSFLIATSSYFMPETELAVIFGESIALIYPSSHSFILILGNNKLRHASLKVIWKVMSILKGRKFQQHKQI
Put plainly: Agonist activity at human TAS2R7 expressed in HEK293T cells co-expressing Galpha15 assessed as increase in intracellular calcium level at 20 mM by Calcium-3 dye based fluorescence assay relative to control.

In test [3] the target is T3, Taste receptor type 2 member 45 (Homo sapiens) (UniProt P59539).
T3 sequence (whole entry): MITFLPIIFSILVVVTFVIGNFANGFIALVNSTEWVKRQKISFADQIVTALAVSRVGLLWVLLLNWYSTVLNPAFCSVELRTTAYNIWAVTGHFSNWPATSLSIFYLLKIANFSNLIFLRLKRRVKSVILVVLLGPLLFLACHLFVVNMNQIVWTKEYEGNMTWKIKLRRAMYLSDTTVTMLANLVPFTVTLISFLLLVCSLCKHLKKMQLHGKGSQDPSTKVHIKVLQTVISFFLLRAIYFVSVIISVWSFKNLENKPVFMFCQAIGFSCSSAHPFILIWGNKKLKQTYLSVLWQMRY
Put plainly: Agonist activity at human TAS2R45 expressed in HEK293T cells co-expressing Galpha15 assessed as increase in intracellular calcium level at 20 mM by Calcium-3 dye based fluorescence assay relative to control.

The target of test [4] is T4, Taste receptor type 2 member 50 (Homo sapiens) (UniProt P59544).
T4 sequence (whole entry): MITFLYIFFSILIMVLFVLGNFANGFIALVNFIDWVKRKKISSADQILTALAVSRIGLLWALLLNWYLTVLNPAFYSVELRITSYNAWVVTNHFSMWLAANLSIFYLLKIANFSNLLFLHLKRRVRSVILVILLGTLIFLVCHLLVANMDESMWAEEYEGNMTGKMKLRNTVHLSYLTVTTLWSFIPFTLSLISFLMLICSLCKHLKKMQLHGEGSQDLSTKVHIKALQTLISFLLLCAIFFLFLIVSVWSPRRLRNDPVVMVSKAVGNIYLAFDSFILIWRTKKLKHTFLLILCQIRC
Put plainly: Agonist activity at human TAS2R50 expressed in HEK293T cells co-expressing Galpha15 assessed as increase in intracellular calcium level at 20 mM by Calcium-3 dye based fluorescence assay relative to control.

Test [5] has as its target T5, Taste receptor type 2 member 31 (Homo sapiens) (UniProt P59538).
T5 sequence (whole entry): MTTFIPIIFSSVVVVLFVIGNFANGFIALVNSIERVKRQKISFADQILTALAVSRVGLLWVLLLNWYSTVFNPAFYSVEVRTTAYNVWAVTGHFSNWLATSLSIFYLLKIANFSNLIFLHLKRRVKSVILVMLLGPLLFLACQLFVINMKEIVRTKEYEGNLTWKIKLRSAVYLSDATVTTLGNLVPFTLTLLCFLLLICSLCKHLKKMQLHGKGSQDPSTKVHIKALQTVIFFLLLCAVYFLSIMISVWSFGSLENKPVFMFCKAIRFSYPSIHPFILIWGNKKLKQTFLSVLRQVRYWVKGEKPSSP
Put plainly: Agonist activity at human TAS2R44 expressed in HEK293T cells co-expressing Galpha15 assessed as increase in intracellular calcium level at 20 mM by Calcium-3 dye based fluorescence assay relative to control.

In test [6] the target is T6, Taste receptor type 2 member 10 (Homo sapiens) (UniProt Q9NYW0).
T6 sequence (whole entry): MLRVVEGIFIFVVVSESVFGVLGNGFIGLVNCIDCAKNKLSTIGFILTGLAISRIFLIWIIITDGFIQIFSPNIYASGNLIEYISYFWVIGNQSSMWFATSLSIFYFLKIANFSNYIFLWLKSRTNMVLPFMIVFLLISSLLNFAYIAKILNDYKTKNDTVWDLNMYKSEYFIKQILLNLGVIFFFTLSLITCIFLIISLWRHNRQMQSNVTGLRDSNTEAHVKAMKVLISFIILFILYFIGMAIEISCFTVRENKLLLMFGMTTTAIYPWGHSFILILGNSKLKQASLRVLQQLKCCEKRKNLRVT
Put plainly: Agonist activity at human TAS2R10 expressed in HEK293T cells co-expressing Galpha15 assessed as increase in intracellular calcium level at 20 mM by Calcium-3 dye based fluorescence assay relative to control.

Test [7] has as its target T7, Taste receptor type 2 member 39 (Homo sapiens) (UniProt P59534).
T7 sequence (whole entry): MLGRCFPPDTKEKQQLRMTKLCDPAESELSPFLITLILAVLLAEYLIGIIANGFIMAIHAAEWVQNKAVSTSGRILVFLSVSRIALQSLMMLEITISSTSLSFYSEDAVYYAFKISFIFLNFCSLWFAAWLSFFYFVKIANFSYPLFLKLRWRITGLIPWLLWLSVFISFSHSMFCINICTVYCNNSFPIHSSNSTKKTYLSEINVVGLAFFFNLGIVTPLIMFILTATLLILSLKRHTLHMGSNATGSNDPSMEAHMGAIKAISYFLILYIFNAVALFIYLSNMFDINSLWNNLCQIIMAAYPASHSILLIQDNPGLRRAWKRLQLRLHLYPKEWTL
Put plainly: Agonist activity at human TAS2R39 expressed in HEK293T cells co-expressing Galpha15 assessed as increase in intracellular calcium level at 20 mM by Calcium-3 dye based fluorescence assay relative to control.

Turning to `[Cl-].[K+]` [POTASSIUM CHLORIDE], the Activity is greater than 40% in test [1]; less than 40% in test [2]; less than 40% in test [3]; less than 40% in test [4]; greater than 40% in test [5]; less than 40% in test [6]. Moreover, the Activity in test [7] is less than 40%.
`CC1=CC(=O)NS(=O)(=O)O1`: the Activity is greater than 40% in test [1]; less than 40% in test [2]; less than 40% in test [3]; less than 40% in test [4]; greater than 40% in test [5]; less than 40% in test [6]. The Activity in test [7] is less than 40%.
Take `CC(O)C(=O)[O-].[K+]` (stereo unspecified): the Activity in test [1] is greater than 40%; in test [2], less than 40%; in test [3], less than 40%; in test [4], less than 40%; in test [5], greater than 40%; in test [6] it was less than 40%. Moreover, the Activity in test [7] is less than 40%.
